In general, IC50 refers to the midpoint of a concentration-inhibition curve. A high value points to weaker potency. Broadly, the EC50 is the concentration that produces a half-maximal response. Lower therefore signals greater potency.

For 16 compounds, IC50 and EC50 results are on record in patent publication US8969375B2, “CDK9 kinase inhibitors” (AbbVie Inc., priority 2013, dated 2015).

The target in one assay is T1, CDK9/Cyclin T1 (Homo sapiens, UniProt P50750).
T1 construct: purchased Carna Biosciences 04-110
T1 sequence (P50750 whole entry): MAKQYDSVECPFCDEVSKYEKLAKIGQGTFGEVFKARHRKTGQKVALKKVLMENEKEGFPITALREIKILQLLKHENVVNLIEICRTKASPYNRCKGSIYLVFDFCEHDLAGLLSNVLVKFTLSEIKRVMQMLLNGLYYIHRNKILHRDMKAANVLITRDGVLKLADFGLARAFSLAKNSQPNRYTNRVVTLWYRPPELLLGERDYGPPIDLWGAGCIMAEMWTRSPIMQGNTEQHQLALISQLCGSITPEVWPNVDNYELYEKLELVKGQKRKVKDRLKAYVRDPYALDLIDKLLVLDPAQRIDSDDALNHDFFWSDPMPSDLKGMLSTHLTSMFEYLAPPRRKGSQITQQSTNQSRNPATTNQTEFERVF
T1 sequence (O60563 whole entry partner): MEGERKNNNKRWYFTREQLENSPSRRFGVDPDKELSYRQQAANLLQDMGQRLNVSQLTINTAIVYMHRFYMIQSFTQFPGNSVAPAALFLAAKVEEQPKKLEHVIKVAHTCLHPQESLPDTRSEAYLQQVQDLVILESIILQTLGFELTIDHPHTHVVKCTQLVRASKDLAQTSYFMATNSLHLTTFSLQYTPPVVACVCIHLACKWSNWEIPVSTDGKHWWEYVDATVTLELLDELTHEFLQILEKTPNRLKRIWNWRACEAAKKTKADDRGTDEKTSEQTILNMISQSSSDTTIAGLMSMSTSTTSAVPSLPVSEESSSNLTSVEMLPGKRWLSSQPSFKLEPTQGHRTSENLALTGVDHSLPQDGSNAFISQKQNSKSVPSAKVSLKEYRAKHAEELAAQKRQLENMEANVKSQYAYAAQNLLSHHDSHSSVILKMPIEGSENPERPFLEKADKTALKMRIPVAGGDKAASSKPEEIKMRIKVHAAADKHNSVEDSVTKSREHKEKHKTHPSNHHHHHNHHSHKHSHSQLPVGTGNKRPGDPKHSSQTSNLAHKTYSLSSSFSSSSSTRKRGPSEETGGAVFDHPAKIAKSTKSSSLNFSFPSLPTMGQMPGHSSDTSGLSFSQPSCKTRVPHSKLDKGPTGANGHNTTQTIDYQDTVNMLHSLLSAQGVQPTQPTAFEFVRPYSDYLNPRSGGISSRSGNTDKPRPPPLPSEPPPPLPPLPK
The assay is described as follows: CDK9 enzyme activity, LANCE ULight TR-FRET kinase assay. It counts as biochemical. As to conditions: 1000 μM ATP, 4 nM CDK9/Cyclin T1, 30 minutes. The procedure:
CDK9 enzyme activities were measured using LANCE ULight TR-FRET kinase assay reagents (PerkinElmer, Waltham, Mass.). Compounds were directly added in 100% DMSO to white low volume assay plates (Perkin Elmer Proxiplate 6008289) using a Labcyte Echo acoustic dispenser. Assay reagents in serine/threonine kinase assay buffer containing 20 mM HEPES, 10 mM MgCl2, 100 mM Na3VO4, and 0.0075% Triton X-100. were added for final reaction mixture concentrations of 1000 μM ATP, 100 nM U-light MBP peptide (Perkin Elmer TRF0109M) and reaction initiated with 4 nM CDK9/Cyclin T1 (Carna Biosciences 04-110). The kinase reaction was carried out for 30 minutes before addition of stopping buffer to a final of 20 mM EDTA and 0.5 nM of LANCE Ultra Europium anti-phospho-MBP antibody (PerkinElmer TRF0201M) in LANCE detection buffer (PerkinElmer CR97-100). The reaction was equilibrated for 1 hour and the signal read in the Perkin Elmer Envision in TR-FRET mode (excitation at 320 nm and emission at 615/665 nm).
A general note: Time-resolved FRET reads energy transfer from a long-lived donor to a nearby acceptor.

For the next assay, the system named is H929 cells. Nature of the assay: Cell viability assay (Cell TiterGlo), H929 cells. As to conditions: Homo sapiens, NCI-H929, 24 hours. It counts as cell-based, human. As for the experimental part: Cell viability assays were performed using A431 or H929 cells. A431 cells were seeded in 96-well plates at 10,000 cells/well, and after overnight incubation, treated with compounds at 2-times the final concentration to result in a dose response of 3-fold dilutions from 10 μM to 0.0005 μM (50 μL/well, 0.1% final DMSO concentration). H929 cells were seeded in 96-well plates at 10,000 cells/well and treated immediately with compounds as described above. After 24 hours at 37° C., cell viability was measured using Cell TiterGlo reagent (Promega) with a luminescence reader. Alternately, cell viability assays were performed in 384-well format. A431 cells were seeded in 384-well plates at 2500 cells/well and, after overnight incubation, treated with compounds in a dose response of 3-fold dilutions from 10 μM to 0.0005 μM ([…], 0.1% final DMSO concentration). For the H929 viability assay, […] of the compounds was dispensed into 384-well plates in a dose response as described above and cells were immediately seeded in 384-well plates at 2500 cells/well. After 24 hours at […], cell viability was measured using Cell TiterGlo reagent (Promega) with a luminescence reader.

In the case of `Fc1cccc(Cn2ccc3ncc(-c4ccnc5[nH]c(C6=CCNCC6)cc45)cc32)c1` [Example 40, 1-(3-fluorobenzyl)-6-[2-(1,2,3,6-tetrahydropyridin-4-yl)-1H-pyrrolo[2,3-b]pyridin-4-yl]-1H-pyrrolo[3,2-b]pyridine], the concentration for half-maximal inhibition (IC50) on CDK9/Cyclin T1 turned out to be 17 nM. It took 53 nM to reach a half-maximal effect with H929 cells (EC50).
In the same order, the values of `COC(=N)c1cn(Cc2cccc(F)c2)c2cc(-c3ccnc4[nH]c(C5CCNCC5)cc34)c(F)cc12` [Example 41, methyl 5-fluoro-1-(3-fluorobenzyl)-6-[2-(piperidin-4-yl)-1H-pyrrolo[2,3-b]pyridin-4-yl]-1H-indole-3-carboximidate] are 91 nM and 590 nM.
In the same order, the values of `N#Cc1cn(Cc2cccc(F)c2)c2cc(-c3ccnc4[nH]c(C5CCNCC5)cc34)c(F)cc12` [Example 42, 5-fluoro-1-(3-fluorobenzyl)-6-[2-(piperidin-4-yl)-1H-pyrrolo[2,3-b]pyridin-4-yl]-1H-indole-3-carbonitrile] are 55 nM and 210 nM.
Taken in the same sequence, the figures for `Fc1cccc(Cn2ccc3ccc(-c4ccnc5[nH]c(C6CCNCC6)cc45)nc32)c1` [Example 43, 1′-(3-fluorobenzyl)-2-(piperidin-4-yl)-1H,1′H-4,6′-bipyrrolo[2,3-b]pyridine] were 26 nM and 150 nM.
In turn, `c1cc(-c2ccc3ccn(CC4CCOCC4)c3n2)c2cc(C3CCNCC3)[nH]c2n1` [Example 44, 2-(piperidin-4-yl)-1′-(tetrahydro-2H-pyran-4-ylmethyl)-1H,1′H-4,6′-bipyrrolo[2,3-b]pyridine] showed an IC50 against CDK9/Cyclin T1 of 44 nM. Further, the half-maximal effective concentration (EC50) in the assay with H929 cells is 1100 nM.
In the same order, the values of `CNC(=O)N1CCC(c2cc3c(-c4cnc5ccn(Cc6cccc(F)c6)c5c4)ccnc3[nH]2)CC1` [Example 45, 4-{4-[1-(3-fluorobenzyl)-1H-pyrrolo[3,2-b]pyridin-6-yl]-1H-pyrrolo[2,3-b]pyridin-2-yl}-N-methylpiperidine-1-carboxamide] are 30 nM and 120 nM.
In the same order, the values of `CS(=O)(=O)N1CCC(c2cc3c(-c4cnc5ccn(CC6CCOCC6)c5c4)ccnc3[nH]2)CC1` [Example 46, 6-{2-[1-(methylsulfonyl)piperidin-4-yl]-1H-pyrrolo[2,3-b]pyridin-4-yl}-1-(tetrahydro-2H-pyran-4-ylmethyl)-1H-pyrrolo[3,2-b]pyridine] are 140 nM and 1800 nM.
In the case of `CNC(=O)N1CCC(c2cc3c(-c4cnc5ccn(Cc6cncc(F)c6)c5c4)ccnc3[nH]2)CC1` [Example 47, 4-(4-{1-[(5-fluoropyridin-3-yl)methyl]-1H-pyrrolo[3,2-b]pyridin-6-yl}-1H-pyrrolo[2,3-b]pyridin-2-yl)-N-methylpiperidine-1-carboxamide], the half-maximal inhibitory concentration (IC50) against CDK9/Cyclin T1 turned out to be 23 nM. In the assay with H929 cells, this compound showed an EC50 of 600 nM.
Taken in the same sequence, the figures for `CS(=O)(=O)N1CCC(c2cc3c(-c4cnc5ccn(Cc6cncc(F)c6)c5c4)ccnc3[nH]2)CC1` [Example 48, 1-[(5-fluoropyridin-3-yl)methyl]-6-{2-[1-(methylsulfonyl)piperidin-4-yl]-1H-pyrrolo[2,3-b]pyridin-4-yl}-1H-pyrrolo[3,2-b]pyridine] were 35 nM and 540 nM.
Taken in the same sequence, the figures for `Fc1cncc(Cn2ccc3ccc(-c4ccnc5[nH]c(C6CCNCC6)cc45)nc32)c1` [Example 49, 1′-[(5-fluoropyridin-3-yl)methyl]-2-(piperidin-4-yl)-1H,1′H-4,6′-bipyrrolo[2,3-b]pyridine] were 24 nM and 250 nM.
In the same order, the values of `Fc1cncc(Cn2ccc3ncc(-c4ccnc5[nH]c(C6=CCNCC6)cc45)cc32)c1` [Example 50, 1-[(5-fluoropyridin-3-yl)methyl]-6-[2-(1,2,3,6-tetrahydropyridin-4-yl)-1H-pyrrolo[2,3-b]pyridin-4-yl]-1H-pyrrolo[3,2-b]pyridine] are 17 nM and 120 nM.
On CDK9/Cyclin T1, `CNC(=O)N1CCC(c2cc3c(-c4ccc5ccn(Cc6cncc(F)c6)c5n4)ccnc3[nH]2)CC1` [Example 52, 4-{1′-[(5-fluoropyridin-3-yl)methyl]-1H,1′H-4,6′-bipyrrolo[2,3-b]pyridin-2-yl}-N-methylpiperidine-1-carboxamide] gave a half-maximal inhibitory concentration (IC50) of 11 nM. Further, the half-maximal effective concentration (EC50) in the assay with H929 cells worked out at 1100 nM.
As for `CS(=O)(=O)N1CCC(c2cc3c(-c4ccc5ccn(Cc6cncc(F)c6)c5n4)ccnc3[nH]2)CC1` [Example 53, 1′-[(5-fluoropyridin-3-yl)methyl]-2-[1-(methylsulfonyl)piperidin-4-yl]-1H,1′H-4,6′-bipyrrolo[2,3-b]pyridine], on CDK9/Cyclin T1, half-maximal inhibition (IC50) was put at 8 nM. The compound further registered a concentration for a half-maximal effect (EC50) with H929 cells of 1400 nM.
`CNC(=O)N1CC=C(c2cc3c(-c4ccc5ccn(Cc6cncc(F)c6)c5n4)ccnc3[nH]2)CC1` [Example 54, 4-{1′-[(5-fluoropyridin-3-yl)methyl]-1H,1′H-4,6′-bipyrrolo[2,3-b]pyridin-2-yl}-N-methyl-3,6-dihydropyridine-1(2 H)-carboxamide] registered an IC50 against CDK9/Cyclin T1 of 27 nM. Also, the 50% effective concentration (EC50) in the assay with H929 cells came to 210 nM.
In the same order, the values of `CS(=O)(=O)N1CC=C(c2cc3c(-c4ccc5ccn(Cc6cncc(F)c6)c5n4)ccnc3[nH]2)CC1` [Example 55, 1′-[(5-fluoropyridin-3-yl)methyl]-2-[1-(methylsulfonyl)-1,2,3,6-tetrahydropyridin-4-yl]-1H,1′H-4,6′-bipyrrolo[2,3-b]pyridine] are 65 nM and 370 nM.
`Fc1cncc(Cn2ccc3ccc(-c4ccnc5[nH]c(C6=CCCNC6)cc45)nc32)c1` [Example 56, 1′-[(5-fluoropyridin-3-yl)methyl]-2-(1,2,5,6-tetrahydropyridin-3-yl)-1H,1′H-4,6′-bipyrrolo[2,3-b]pyridine] yielded an IC50 against CDK9/Cyclin T1 of 29 nM. The concentration giving a half-maximal response (EC50) with H929 cells came out at 250 nM.
